# No end group written: not given here.
# Legend:
# ADAMTS13 = molecular target: T1, ADAMTS13 (Homo sapiens, UniProt Q76LX8); assay: ADAMTS13 activity assay with fluorogenic (FRET) polypeptide substrate and diluted plasma samples; format: biochemical; conditions: for Assigned/Expected % Normal ADAMTS13 Activity Values Based on FRETS-VWF73 Substrate: incubation 30 Minutes
# T1 construct: tissue Gen-Probe GTI Diagnostics (ATS-13 kit calibrators, controls and proficiency samples); George King Biomedical Inc. (FACT, A-FACT, B-FACT plasmas) ATS-13; host or cells: plasma
# T1 sequence (Q76LX8 75-1427): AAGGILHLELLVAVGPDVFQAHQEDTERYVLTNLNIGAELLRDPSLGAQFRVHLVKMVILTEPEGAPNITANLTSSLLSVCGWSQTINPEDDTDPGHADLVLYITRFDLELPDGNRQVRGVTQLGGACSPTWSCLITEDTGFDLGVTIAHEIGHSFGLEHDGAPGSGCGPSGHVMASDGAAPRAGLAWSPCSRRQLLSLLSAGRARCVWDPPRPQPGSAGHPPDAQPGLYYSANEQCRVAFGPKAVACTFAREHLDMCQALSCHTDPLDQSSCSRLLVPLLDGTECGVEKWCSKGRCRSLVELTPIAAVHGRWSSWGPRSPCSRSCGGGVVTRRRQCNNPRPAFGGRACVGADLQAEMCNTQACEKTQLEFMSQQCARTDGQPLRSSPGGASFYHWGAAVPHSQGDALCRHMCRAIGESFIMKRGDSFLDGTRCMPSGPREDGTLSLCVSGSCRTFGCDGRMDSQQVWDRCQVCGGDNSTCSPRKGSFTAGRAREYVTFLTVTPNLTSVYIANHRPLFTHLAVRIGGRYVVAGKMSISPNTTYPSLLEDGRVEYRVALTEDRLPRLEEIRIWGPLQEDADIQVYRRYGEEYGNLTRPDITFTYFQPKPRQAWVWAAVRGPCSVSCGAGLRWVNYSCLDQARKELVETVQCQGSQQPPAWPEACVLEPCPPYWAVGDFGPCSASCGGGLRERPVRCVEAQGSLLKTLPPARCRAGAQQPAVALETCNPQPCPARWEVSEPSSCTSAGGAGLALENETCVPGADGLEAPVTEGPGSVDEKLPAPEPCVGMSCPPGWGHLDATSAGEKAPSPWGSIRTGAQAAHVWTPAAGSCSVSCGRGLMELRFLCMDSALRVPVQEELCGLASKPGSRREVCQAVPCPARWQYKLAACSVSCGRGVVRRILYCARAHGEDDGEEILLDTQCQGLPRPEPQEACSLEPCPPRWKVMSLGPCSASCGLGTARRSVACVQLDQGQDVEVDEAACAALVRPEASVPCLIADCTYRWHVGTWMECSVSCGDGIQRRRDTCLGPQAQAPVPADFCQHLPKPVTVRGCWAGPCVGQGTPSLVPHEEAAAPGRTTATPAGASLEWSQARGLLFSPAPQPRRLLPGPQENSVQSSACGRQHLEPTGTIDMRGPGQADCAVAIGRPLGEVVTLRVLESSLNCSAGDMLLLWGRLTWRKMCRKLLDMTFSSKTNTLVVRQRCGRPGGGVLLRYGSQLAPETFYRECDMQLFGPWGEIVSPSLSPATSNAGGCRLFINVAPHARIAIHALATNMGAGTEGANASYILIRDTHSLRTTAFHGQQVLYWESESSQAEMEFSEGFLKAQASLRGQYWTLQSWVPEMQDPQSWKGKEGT
# Protocol: The procedure in this example was performed substantially as described in Kokame, K., Y. Nobe, Y. Kokubo, A. Okayama, and T. Miyata. 2005. FRETS-VWF73, a first fluorogenic substrate for ADAMTS13 assay. Br. J. Haematol. 129:93-100, but using SEQ ID NO: 1 in place of the 73 amino acid substrate described therein. The FRETS-VWF73 substrate solution was dissolved in 25% dimethyl sulphoxide/water to prepare the 100 microM stock solution. The GTI FRET4 SEQ ID NO: 1 was dissolved in 100% DMSO. Both substrates were diluted to equal concentrations using ATS-13 substrate buffer (Gen-Probe GT1 Diagnostics, Inc., U.S.A., Cat#ATS-13).
# Plasma samples were diluted according to the ATS-13 Direction Insert using ATS-13 specimen diluent (Gen-Probe GTI Diagnostics, Inc., U.S.A., Cat# ATS-13). The diluted plasma samples were mixed with the diluted substrate and the fluorescence was read at 0, 5, 10, 15, 20, 30, 45 minutes using a Biotek FLX800 at the appropriate excitation and emission wavelengths for each substrate.
# The fluorophore-quencher pair in the SEQ ID NO: 1 polypeptide substrate is FAM-5/TQ 2^Tm (Ex 485±20; Em 528±20; AAT Bioquest, Inc. Sunnyvale, Calif. U.S.A.). The fluorophore and quencher pair of FRETS-VWF73 (Nma/Dnp) described in Kokame has been substituted with FAM-5 and TQ_2 respectively in GTI_FRET4 SEQ ID NO: 1. Furthermore, in the SEQ ID NO: 1 polypeptide the position of the fluorophore (FAM-5) and quencher (TQ_2) has been swapped relative to the position of the fluorophore and quencher of the FRETS-VWF73 construct. Therefore, for GTI_FRET4 SEQ ID NO: 1, attachment of the fluorophore (FAM-5) occurs by substituting asparagine with cystine at position 15. The quencher (TQ_2) was attached by substituting glutamine with lysine at position 4 (FIG. 2 and Table 4).
# For this experiment, substrate concentration and fluorescence reader settings determined on the previous experiment are used. The specimens tested (listed in Table 3), include a panel of proficiency samples prepared for use with ATS-13 (Gen-Probe GTI Diagnostics, Inc., U.S.A., Cat# ATS-13) which included samples with normal or deficient ADAMTS13 activity levels. In addition, six Factor Assay ConTrol plasma were used (2 FACT, 2 A-FACT and 2 B-FACT, from George King Biomedical Inc., Kansas, USA). The assays for the SEQ ID NO: 1 substrate and for the prior art FRETS-VWF73 assay were performed generally as according to the procedure described in Example 1. Substrate is prepared according to the conditions used for initial testing of the substrate, which prepared the molar amount of SEQ ID NO: 1 polypeptide substrate used in the assay to be equivalent to the molar amount of FRETS-VWF73 used in the prior art. The […] assays were read at 0, 5, 10, 15, 20, 30, 45 minutes.
# Testing of substrate for cleavability by ADAMTS13 is determined as is generally described in Example 1. […]
# [1] = Solubility of the SEQ ID NO: 7 polypeptide substrate (working solution centrifuged, pellet observed); format: physicochemical
# Protocol: 250 .micro.L of working solution is prepared as above. The solution is vortexed vigorously and appears to be in solution. The solution is centrifuged at ˜12,000 g for about 2 minutes. After centrifugation, a very small pink pellet is noted at the bottom of the tube. […] Another tube is prepared as above substituting water for the substrate buffer. This tube is also centrifuged. Once again a pink pellet is observed in the bottom of the tube. The pellet observed in the water solution is noticeably larger than the pellet observed in the substrate buffer solution.
reaction time in the ADAMTS13 assay (ADAMTS13) [min],trend line of the calibration curve (ADAMTS13),"difference between Calibrator A and E, dynamic range (ADAMTS13; Example 2, at 30 minutes) [RFU]",Assigned/Expected % Normal ADAMTS13 Activity Values Based on FRETS-VWF73 Substrate (ADAMTS13; sample Calibrator A) [% Normal],Assigned/Expected % Normal ADAMTS13 Activity Values Based on FRETS-VWF73 Substrate (ADAMTS13; sample Calibrator B) [% Normal],Assigned/Expected % Normal ADAMTS13 Activity Values Based on FRETS-VWF73 Substrate (ADAMTS13; sample Calibrator C) [% Normal],Assigned/Expected % Normal ADAMTS13 Activity Values Based on FRETS-VWF73 Substrate (ADAMTS13; sample Calibrator D) [% Normal],Assigned/Expected % Normal ADAMTS13 Activity Values Based on FRETS-VWF73 Substrate (ADAMTS13; sample Calibrator E) [% Normal],Assigned/Expected % Normal ADAMTS13 Activity Values Based on FRETS-VWF73 Substrate (ADAMTS13; sample MON110707),Assigned/Expected % Normal ADAMTS13 Activity Values Based on FRETS-VWF73 Substrate (ADAMTS13; sample Positive Control High),Assigned/Expected % Normal ADAMTS13 Activity Values Based on FRETS-VWF73 Substrate (ADAMTS13; sample Positive Control Low),Assigned/Expected % Normal ADAMTS13 Activity Values Based on FRETS-VWF73 Substrate (ADAMTS13; sample UAMS041609) [% Normal],Assigned/Expected % Normal ADAMTS13 Activity Values Based on FRETS-VWF73 Substrate (ADAMTS13; sample VF) [% Normal],solubility in water compared with substrate buffer ([1]; pellet size after centrifugation),"solubility in the working solution as prepared ([1]; substrate buffer, centrifuged ~12,000 g about 2 minutes)",Sequence
30,polynomial,2500,0,9,34,55,102,~90-100 % Normal,36-54 % Normal,6-17 % Normal,~35,~20,–,–,"DREQAPNLVYMVTGNPASDEIKRLPGDIQVVPIGVGPNANVOELERIGWPNAPILIQDFLTLPREAPDLVLQR [FRETS-VWF73, reference compound]"
–,–,–,–,–,–,–,–,–,–,–,–,–,less soluble in water than in the buffer,not completely soluble,DREKAPNLVYMVTGCPASDEIKRLPGDIIGWPNAPILIQDFETLPREAPDLVLQR [GTI_FRET5]
